In patent US20100267561A1, “HERBICIDAL PYRIDAZINONE DERIVATIVES” (priority 2007, published 2010):

Tests used:
Assay in all cases: Test B pre-/postemergence plant response
Type in all cases: in vivo
[1] = system: Italian ryegrass (Lolium multiflorum); details: for Ryegrass, Italian plant response rating: 8 g ai/ha
Outline: (§1)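 Preemergence and postemergence (plants 2-18 cm, 1- to 4-leaf stage) applications used test chemicals in a non-phytotoxic solvent with surfactant. Plants were held in a greenhouse 13 to 15 days, then rated visually against controls on a 0-100 scale (0 no effect, 100 complete control).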

[2] = system: Russian thistle (Salsola iberica); details: Preemergence
Outline: as §1

[3] = system: common (oilseed) sunflower (Helianthus annuus); details: Preemergence
Outline: as §1

[4] = system: common ragweed (Ambrosia elation); details: for Ragweed plant response rating: 8 g ai/ha
Outline: as §1

corn (Zea mays) = details: for Corn plant response rating: 8 g ai/ha
Outline: as §1

[5] = system: eastern black (E.B.) nightshade (Solanum ptycanthum); details: Preemergence
Outline: as §1

[6] = system: giant foxtail (Setaria faberii); details: for Foxtail, Giant plant response rating: 8 g ai/ha
Outline: as §1

[7] = system: goosegrass (Eleusine indica); details: for Goosegrass plant response rating: 8 g ai/ha
Outline: as §1

[8] = system: green foxtail (Setaria viridis); details: for Foxtail, Green plant response rating: 8 g ai/ha
Outline: as §1

[9] = system: johnsongrass (Sorghum halepense); details: for Johnsongrass plant response rating: 8 g ai/ha
Outline: as §1

kochia (Kochia scoparia) = details: for Kochia plant response rating: 8 g ai/ha
Outline: as §1

[10] = system: pigweed (Amaranthus retroflexus); details: for Pigweed plant response rating: 8 g ai/ha
Outline: as §1

[11] = system: surinam grass (Brachiaria decumbens); details: for Surinam Grass plant response rating: 8 g ai/ha
Outline: as §1

[12] = system: yellow nutsedge (Cyperus esculentus); details: for Nutsedge, Yellow plant response rating: 8 g ai/ha
Outline: as §1

[13] = Postemergence, 16 g ai/ha, scale 0 to 100
[14] = Postemergence, 31 g ai/ha, scale 0 to 100, 0 no effect, 100 complete control
[15] = Postemergence, 62 g ai/ha, scale 0 to 100, 0 no effect, 100 complete control
[16] = Preemergence, 16 g ai/ha, scale 0 to 100 (0 no effect, 100 complete control)
[17] = Preemergence, 31 g ai/ha, 0 to 100 scale, 0 no effect, 100 complete control
[18] = Preemergence, 62 g ai/ha, scale 0 to 100
[19] = 16 g ai/ha, scale 0 to 100 (0 no effect, 100 complete control)
[20] = 31 g ai/ha, 0 to 100 scale, 0 no effect, 100 complete control

## Cc1cc(-c2ccc(Cl)cc2)nn1-c1c(OS(=O)(=O)c2ccccc2)cnn(C)c1=O [Compound 35]
[1]; postemergence, 0-100 scale
  Ryegrass, Italian plant response rating: 40
[1]; [13]
  Plant response rating, Ryegrass, Italian: 40
[1]; [14]
  Plant response rating, Ryegrass, Italian: 90
[1]; [15]
  Plant response rating, Ryegrass, Italian: 98
[1]; [16]
  Plant response rating, Ryegrass, Italian: 100
[1]; [17]
  Plant response rating, Ryegrass, Italian: 100
[1]; [18]
  Plant response rating, Ryegrass, Italian: 100
[1]; Preemergence, scale 0 to 100
  Ryegrass, Italian plant response rating: 100
[2]; [19]
  Plant response rating, Russian Thistle: 0
[2]; [20]
  Plant response rating, Russian Thistle: 0
[2]; 62 g ai/ha, scale 0 to 100
  Plant response rating, Russian Thistle: 0
[2]; 8 g ai/ha, scale 0 to 100
  Russian Thistle plant response rating: 0
[3]; [19]
  Plant response rating, Sunflower: 0
[3]; [20]
  Plant response rating, Sunflower: 0
[3]; 62 g ai/ha, scale 0 to 100
  Plant response rating, Sunflower: 0
[3]; 8 g ai/ha, scale 0 to 100
  Sunflower plant response rating: 0
[4]; postemergence, 0-100 scale
  Ragweed plant response rating: 0
[4]; [13]
  Plant response rating, Ragweed: 0
[4]; [14]
  Plant response rating, Ragweed: 0
[4]; [15]
  Plant response rating, Ragweed: 0
[4]; [16]
  Plant response rating, Ragweed: 0
[4]; [17]
  Plant response rating, Ragweed: 0
[4]; [18]
  Plant response rating, Ragweed: 0
[4]; Preemergence, scale 0 to 100
  Ragweed plant response rating: 0
Corn (Zea mays); postemergence, 0-100 scale
  Corn plant response rating: 40
Corn (Zea mays); [13]
  Plant response rating, Corn: 90
Corn (Zea mays); [14]
  Plant response rating, Corn: 100
Corn (Zea mays); [15]
  Plant response rating, Corn: 100
Corn (Zea mays); [16]
  Plant response rating, Corn: 40
Corn (Zea mays); [17]
  Plant response rating, Corn: 55
Corn (Zea mays); [18]
  Plant response rating, Corn: 90
Corn (Zea mays); Preemergence, scale 0 to 100
  Corn plant response rating: 5
[5]; [19]
  Plant response rating, Nightshade, E. B.: 0
[5]; [20]
  Plant response rating, Nightshade, E. B.: 0
[5]; 62 g ai/ha, scale 0 to 100
  Plant response rating, Nightshade, E. B.: 0
[5]; 8 g ai/ha, scale 0 to 100
  Nightshade, E. B. plant response rating: 0
[6]; postemergence, 0-100 scale
  Foxtail, Giant plant response rating: 90
[6]; [13]
  Plant response rating, Foxtail, Giant: 98
[6]; [14]
  Plant response rating, Foxtail, Giant: 100
[6]; [15]
  Plant response rating, Foxtail, Giant: 100
[6]; [16]
  Plant response rating, Foxtail, Giant: 100
[6]; [17]
  Plant response rating, Foxtail, Giant: 100
[6]; [18]
  Plant response rating, Foxtail, Giant: 100
[6]; Preemergence, scale 0 to 100
  Foxtail, Giant plant response rating: 100
[7]; postemergence, 0-100 scale
  Goosegrass plant response rating: 20
[7]; [13]
  Plant response rating, Goosegrass: 40
[7]; [14]
  Plant response rating, Goosegrass: 70
[7]; [15]
  Plant response rating, Goosegrass: 75
[7]; [16]
  Plant response rating, Goosegrass: 100
[7]; [17]
  Plant response rating, Goosegrass: 100
[7]; [18]
  Plant response rating, Goosegrass: 100
[7]; Preemergence, scale 0 to 100
  Goosegrass plant response rating: 80
[8]; postemergence, 0-100 scale
  Foxtail, Green plant response rating: 0
[8]; [13]
  Plant response rating, Foxtail, Green: 75
[8]; [14]
  Plant response rating, Foxtail, Green: 95
[8]; [15]
  Plant response rating, Foxtail, Green: 95
[8]; [16]
  Plant response rating, Foxtail, Green: 100
[8]; [17]
  Plant response rating, Foxtail, Green: 100
[8]; [18]
  Plant response rating, Foxtail, Green: 100
[8]; Preemergence, scale 0 to 100
  Foxtail, Green plant response rating: 30
[9]; postemergence, 0-100 scale
  Johnsongrass plant response rating: 0
[9]; [13]
  Plant response rating, Johnsongrass: 60
[9]; [14]
  Plant response rating, Johnsongrass: 95
[9]; [15]
  Plant response rating, Johnsongrass: 95
[9]; [16]
  Plant response rating, Johnsongrass: 80
[9]; [17]
  Plant response rating, Johnsongrass: 80
[9]; [18]
  Plant response rating, Johnsongrass: 80
[9]; Preemergence, scale 0 to 100
  Johnsongrass plant response rating: 45
Kochia (Kochia scoparia); postemergence, 0-100 scale
  Kochia plant response rating: 0
Kochia (Kochia scoparia); [13]
  Plant response rating, Kochia: 0
Kochia (Kochia scoparia); [14]
  Plant response rating, Kochia: 0
Kochia (Kochia scoparia); [15]
  Plant response rating, Kochia: 0
Kochia (Kochia scoparia); [16]
  Plant response rating, Kochia: 0
Kochia (Kochia scoparia); [17]
  Plant response rating, Kochia: 0
Kochia (Kochia scoparia); Preemergence, scale 0 to 100
  Kochia plant response rating: 0
[10]; postemergence, 0-100 scale
  Pigweed plant response rating: 0
[10]; [13]
  Plant response rating, Pigweed: 0
[10]; [14]
  Plant response rating, Pigweed: 0
[10]; [15]
  Plant response rating, Pigweed: 0
[10]; [16]
  Plant response rating, Pigweed: 0
[10]; [17]
  Plant response rating, Pigweed: 0
[10]; [18]
  Plant response rating, Pigweed: 0
[10]; Preemergence, scale 0 to 100
  Pigweed plant response rating: 0
[11]; postemergence, 0-100 scale
  Surinam Grass plant response rating: 70
[11]; [13]
  Plant response rating, Surinam Grass: 95
[11]; [15]
  Plant response rating, Surinam Grass: 100
[11]; [16]
  Plant response rating, Surinam Grass: 90
[11]; [17]
  Plant response rating, Surinam Grass: 100
[11]; [18]
  Plant response rating, Surinam Grass: 100
[11]; Preemergence, scale 0 to 100
  Surinam Grass plant response rating: 45
[12]; postemergence, 0-100 scale
  Nutsedge, Yellow plant response rating: 0
[12]; [13]
  Plant response rating, Nutsedge, Yellow: 0
[12]; [14]
  Plant response rating, Nutsedge, Yellow: 0
[12]; [15]
  Plant response rating, Nutsedge, Yellow: 0
[12]; [16]
  Plant response rating, Nutsedge, Yellow: 0
[12]; [17]
  Plant response rating, Nutsedge, Yellow: 0
[12]; [18]
  Plant response rating, Nutsedge, Yellow: 0
[12]; Preemergence, scale 0 to 100
  Nutsedge, Yellow plant response rating: 0
